Test results reported in PMC6760275, “Comparison of Zebrafish Larvae and hiPSC Cardiomyocytes for Predicting Drug-Induced Cardiotoxicity in Humans” (Toxicological Sciences, 2019).
“Also recorded” adds a separate entry of the source. Read-outs that look alike come from different tables or passages of the source.

Columns and labels:
[1] = test system: zebrafish larvae; test: ZeCardio cardiotoxicity screen in zebrafish larvae (heart and blood flow imaging)
Method: Zebrafish (Danio rerio) were mated, staged, and raised by standard methods ([Westerfield, 2000]). The library screen was performed on double transgenic larvae for Tg[cmlc2: GFP] ([Huang et al., 2003]) and Tg[gata1: DsRed] ([Traver et al., 2003]). Tg[cmlc2: GFP] expresses green fluorescent protein (GFP) in cardiomyocytes and Tg[gata1: DsRed] expresses DsRed fluorescent protein in a subset of erythrocytes.
Determination of NOEC was achieved through an Acute Toxicity test performed on AB wildtype larvae from 3 to 96 hpf, as previously described ([Cornet et al., 2017]) (see Supplementary Table 1 for NOEC data for each compound). For the cardiotoxic drug screening, double transgenic zebrafish larvae for Tg[cmlc2: GFP] and Tg[gata1: DsRed] were collected and raised in Embryo Medium (E3/60× Stock: 34.4 g NaCl, 1.52 g KCl, 5.8 g CaCl2·2H2O, 9.8 g MgSO4·7H2O, add 18 MOhm double distilled water up to 2000 ml; pH: 7.2) at 28.5°C in a 12 h light/12 h dark cycle. From 24 hpf onward, larvae were incubated with N-PhenylThioUrea (PTU) (Sigma-Aldrich, No. P7629) 0.2 mM to reduce pigmentation. Embryo medium was changed every day until 5 dpf, when double positive transgenic larvae were selected. […] Larvae were immersed in E3 with PTU 0.2 mM and Tricaine methanesulfonate (Sigma-Aldrich, No. E10521) at […] working concentration and distributed in 96-well plates in 100 µl per well. Then, 100 µl of compound solution was added at double NOEC concentration to reach the working concentration per compound: NOEC, DMSO 1%, and the final volume of 200 µl per larva per well. Negative control larvae were incubated in 200 µl 1% DMSO. Embryos were allowed to incubate in the compound solution for 4 h before. The developmental stage selected for analysis (5 dpf) was chosen because heart electrophysiological maturation and heart rhythm are stabilized from 96 hpf ([Tessadori et al., 2012]). One hundred and twenty hours post fertilization constitutes the latest stage to perform analysis after heart maturation and with conformation to ethical guidelines. Finally, the drug incubation time of 4 h was selected according to a previously established experimental set up ([Cornet et al., 2017]). Twelve embryos (1 embryo/well) were imaged for each compound, and the screening of the whole library was distributed over 15 experimental days. On each experimental day, 8 molecules were imaged: 7 drugs and the negative control 1% DMSO, to allow intraexperimental comparison.
The hardware conforming the screening platform allows zebrafish larvae sampling from multi-well plates to allow their position and automatic orientation in a glass capillary under a microscope to perform high-throughput imaging acquisition. It integrates 2 commercially available systems. First, an integrated VAST system (Union Biometrica) ([Pardo-Martin et al., 2010]), which consists of 2 complementary devices: (1) LP sampler, an automated fluid system capable of aspirating small to medium sized particles from multi-well plates and delivering them intact to the VAST BioImager, and (2) VAST BioImager, an automated fluid system, which positions zebrafish larva in a glass capillary. Once introduced in the glass capillary, the larva is recognized by an integrated imaging system and rotated to the desired angle for external imaging. Second, a Leica DM6B upright widefield microscope with a motorized Z-stage and Leica DFC9000 GTC (4.2 megapixel) CMOS camera particularly suited for high-speed fluorescent imaging applications achieves the fluorescent time-lapse imaging. The 2 systems, VAST and Leica microscope, communicate to coordinate the tasks of sampling, positioning, and imaging. To control the microscope, the LASX software (Leica) was used. To focus fluorescent structures in z-direction, the Autofocus function in LASX was used.

[2] = cited from earlier work; for market withdrawal due to cardiovascular adverse effects: ref Onakpoya et al., 2016, Siramshetty et al.; for cardiovascular clinical adverse effects: parent drug and/or metabolites, ref Zhang et al., 2012
[3] = test system: Pluricyte hiPSC-CMs; test: hiPSC-CM calcium transient FLIPR assay; details: 10 μM; for detection as cardiotoxic in hiPSC-CMs (hiPSC-CM positive): 0.1% DMSO, any feature significant at any time point (5, 30, 90 min); for time point of detection in hiPSC-CMs: T1 5 min, T2 30 min, T3 90 min after compound addition
Method: hiPSC-CMs beat spontaneously under culture conditions and the beating pattern can be addressed by Ca^2+ dyes reporting the intracellular Ca^2+ concentration that is then measured by the fluorometric imaging plate reader (FLIPR).
This standard protocol was changed at 2 steps: hiPSC-CMs were not spun after thawing and the final concentration was 15 000 instead of 10 000 cells/well.
Twenty microliters of Ca-6 dye solution was added to each well of the assay plate and the assay plate was incubated for 2 h at 37°C, 5% CO2 in the dark. […] After baseline measurement, compounds were added and the fluorescence signal was measured 5, 30, and 90 min after compound treatment. Fifteen microliters of compound dilution was transferred from a compound source plate (40 μM, 0.4% DMSO) to the assay plate (already containing 25 μl cells and 20 μl Ca-6 dye) using FLIPR. The final compound concentration was 10 μM and 0.1% DMSO. Between each measurement the plate was returned to the same incubator. Five extracted features were quantified: beating frequency/beats per minute (bpm), amplitude (ampl), area under the curve (auc), peak width (pkw), and peak width at 10% amplitude (ppkw) are measures informing about the depolarization and repolarization kinetics. […] Each compound was assessed as triplicate at 3 time points after incubation (T1: 5 min, T2: 30 min, T3: 90 min). A measurement was taken prior to compound addition (baseline, not shown). As there was little variability in the baseline measurement, it was not necessary to normalize against baseline. An average of the data of each feature for each time point was fed into the statistical model to determine significant effects.
The LMMs include random effects accounting for the different sources of variation from the experimental design.

[4] = test system: hERG; parameters: method as in Guo et al., 2007; Shi et al., 2015; details: human patients and rat cardiomyocytes; ref Guo et al., 2007; Shi et al., 2015; cited from earlier work
[5] = test system: AB wildtype larvae; test: Acute Toxicity test for NOEC determination in AB wildtype zebrafish larvae, 3 to 96 hpf; assay type: in vivo, Danio rerio; details: higher concentration than the working concentration
Method: Determination of NOEC was achieved through an Acute Toxicity test performed on AB wildtype larvae from 3 to 96 hpf, as previously described ([Cornet et al., 2017]) (see Supplementary Table 1 for NOEC data for each compound). […] Larvae were immersed in E3 with PTU 0.2 mM and Tricaine methanesulfonate (Sigma-Aldrich, No. E10521) at 168 mg/ml working concentration and distributed in 96-well plates in 100 µl per well. Then, 100 µl of compound solution was added at double NOEC concentration to reach the working concentration per compound: NOEC, DMSO 1%, and the final volume of 200 µl per larva per well. Negative control larvae were incubated in 200 µl 1% DMSO. Embryos were allowed to incubate in the compound solution for 4 h before. […] Twelve embryos (1 embryo/well) were imaged for each compound, and the screening of the whole library was distributed over 15 experimental days. On each experimental day, 8 molecules were imaged: 7 drugs and the negative control 1% DMSO, to allow intraexperimental comparison.

[6] = 5 dpf larvae, 4 h incubation at NOEC, 1% DMSO, positive if any numerical feature significant or flag incidence above 30%

CN(CCOc1ccc(NS(C)(=O)=O)cc1)CCc1ccc(NS(C)(=O)=O)cc1 [Dofetilide]
detection as cardiotoxic in zebrafish (zebrafish positive) ([1]; in vivo): detection | market withdrawal due to cardiovascular adverse effects ([2]; humans): withdrawn from the market

COc1cccc2c1C(=O)c1c(O)c3c(c(O)c1C2=O)C[C@@](O)(C(=O)CO)C[C@@H]3O[C@H]1C[C@H](N)[C@H](O)[C@H](C)O1 [Doxorubicin]
cardiotoxicity in humans ([2]; ref Raj et al., 2014): promotes both acute and chronic cardiotoxicity in humans

CC(C)NCC(O)c1cc(O)cc(O)c1 (stereo not drawn) [Metaproterenol]
detection as cardiotoxic in zebrafish (zebrafish positive) ([1]; in vivo): could detect all | market withdrawal due to cardiovascular adverse effects ([2]; humans): withdrawn from the market due to cardiotoxicity concerns

CCCN1C[C@H](CSC)C[C@@H]2c3cccc4[nH]cc(c34)C[C@H]21 [Pergolide]
clinical adverse effect leading to withdrawal ([2]; humans, no reference given): valvulopathies | market withdrawal due to cardiovascular adverse effects ([2]; humans): withdrawn from the market | detection as cardiotoxic in hiPSC-CMs (hiPSC-CM positive) [3]: failed to detect; also recorded: neither model detected

COc1cc(N)c(Cl)cc1C(=O)NC1CCN(CCCOc2ccc(F)cc2)CC1OC (stereo not drawn) [Cisapride]
Bigeminy ([1]; in vivo): Bigeminy | detection as cardiotoxic in zebrafish (zebrafish positive) ([1]; in vivo): could detect all | market withdrawal due to cardiovascular adverse effects ([2]; humans): withdrawn from the market due to cardiotoxicity concerns

CC(C)C[C@H]1C(=O)N2CCC[C@H]2[C@]2(O)O[C@](NC(=O)[C@@H]3C=C4c5cccc6[nH]c(Br)c(c56)C[C@H]4N(C)C3)(C(C)C)C(=O)N12 [Bromocriptine]
detection in zebrafish due to features other than ventricular BPM ([1]; 5 dpf larvae, 4 h incubation at NOEC): detected for effects in features other than BPM; also recorded: enabled the detection | irregular beating of the heart (arrhythmia) ([1]; 5 dpf larvae, 4 h incubation at NOEC, representative example): arrhythmia | market withdrawal due to cardiovascular adverse effects ([2]; humans): withdrawn from the market | time point of detection in hiPSC-CMs [3]: detected only at T3; also recorded: only detected as cardiotoxic through the late assessment

CCCCCCCN(CC)CCCC(O)c1ccc(NS(C)(=O)=O)cc1 (stereo not drawn) [Ibutilide]
cardiotoxicity in humans ([2]; ref Stambler et al., 1997): can induce or worsen ventricular arrhythmias with fatal consequences

COCCc1ccc(OCC(O)CNC(C)C)cc1 (stereo not drawn) [Metoprolol]
irregular beating of the heart (arrhythmia) ([1]; in vivo): arrhythmia

CS(=O)(=O)c1ccc(C2=C(c3ccccc3)C(=O)OC2)cc1 [Rofecoxib]
cardiovascular clinical adverse effects ([2]; humans): heart attack and stroke | market withdrawal due to cardiovascular adverse effects ([2]; humans): withdrawn from the market due to cardiotoxicity concerns | detection as cardiotoxic in hiPSC-CMs (hiPSC-CM positive) [3]: failed to detect; also recorded: did not even detect

CN1CCN(C2=Nc3cc(Cl)ccc3Nc3ccccc32)CC1 [Clozapine]
market withdrawal due to cardiovascular adverse effects ([2]; humans): withdrawn from the market

CC(C)(Sc1cc(C(C)(C)C)c(O)c(C(C)(C)C)c1)Sc1cc(C(C)(C)C)c(O)c(C(C)(C)C)c1 [Probucol]
detection as cardiotoxic in zebrafish (zebrafish positive) ([1]; in vivo): detection | arrhythmic phenotypes in hiPSC-CMs [3]: does not show arrhythmic phenotypes | detection as cardiotoxic in hiPSC-CMs (hiPSC-CM positive) [3]: failed to detect; also recorded: cannot detect | effect on hERG activity [4]: interfere with hERG activity

CNCC(O)c1ccc(O)c(O)c1 (stereo not drawn) [Racepinephrine]
detection as cardiotoxic in zebrafish (zebrafish positive) ([1]; in vivo): detection | heart rate (ventricular BPM) phenotype ([1]; in vivo): tachycardia | market withdrawal due to cardiovascular adverse effects ([2]; humans): withdrawn from the market

O=C(O[C@@H]1C[C@@H]2C[C@H]3C[C@H](C1)N2CC3=O)c1c[nH]c2ccccc12 [Dolasetron]
detection as cardiotoxic in zebrafish (zebrafish positive) ([1]; in vivo): could detect all | detection as cardiotoxic in hiPSC-CMs (hiPSC-CM positive) [3]: failed to detect

Cc1ccc(-c2cc(C(F)(F)F)nn2-c2ccc(S(N)(=O)=O)cc2)cc1 [Celecoxib]
detection as cardiotoxic in zebrafish (zebrafish positive) ([1]; in vivo): could detect all | market withdrawal due to cardiovascular adverse effects ([2]; humans): withdrawn from the market due to cardiotoxicity concerns | detection as cardiotoxic in hiPSC-CMs (hiPSC-CM positive) [3]: failed to detect; also recorded: did not even detect

CC(C)COCC(CN(Cc1ccccc1)c1ccccc1)N1CCCC1 (stereo not drawn) [Bepridil]
detection as cardiotoxic in zebrafish (zebrafish positive) ([1]; in vivo): detection | market withdrawal due to cardiovascular adverse effects ([2]; humans): withdrawn from the market

COc1ccc(CCN2CCC(Nc3nc4ccccc4n3Cc3ccc(F)cc3)CC2)cc1 [Astemizole]
Bigeminy ([1]; in vivo): Bigeminy | cardiovascular clinical adverse effects ([2]; humans): promote cardiovascular clinical adverse effects through both the parent drug and metabolites | market withdrawal due to cardiovascular adverse effects ([2]; humans): withdrawn from the market due to cardiotoxicity concerns | detection as cardiotoxic in hiPSC-CMs (hiPSC-CM positive) [3]: TP molecules for both models

CC(C)NCC(O)COc1cccc2ccccc12 (stereo not drawn) [Propranolol]
heart rate (ventricular BPM) phenotype ([1]; in vivo): bradycardia

CC(Cc1ccccc1)NCCC(c1ccccc1)c1ccccc1 (stereo not drawn) [Prenylamine]
market withdrawal due to cardiovascular adverse effects ([2]; humans): withdrawn from the market | developmental defects in the acute toxicity test [5]: strong developmental defects

O=C(CCCN1CC=C(n2c(=O)[nH]c3ccccc32)CC1)c1ccc(F)cc1 [Droperidol]
market withdrawal due to cardiovascular adverse effects ([2]; humans): withdrawn from the market

CCN[C@@H](C)Cc1cccc(C(F)(F)F)c1 [Dexfenfluramine]
detection as cardiotoxic in zebrafish (zebrafish positive) [1, 6]: could detect all | market withdrawal due to cardiovascular adverse effects ([2]; humans): withdrawn from the market due to cardiotoxicity concerns | detection as cardiotoxic in hiPSC-CMs (hiPSC-CM positive) [3]: failed to detect

CC(C)CC(N(C)C)C1(c2ccc(Cl)cc2)CCC1 (stereo not drawn) [Sibutramine]
detection as cardiotoxic in zebrafish (zebrafish positive) [1, 6]: could detect all; also recorded: TP molecules for both models | cardiovascular clinical adverse effects ([2]; humans): promote cardiovascular clinical adverse effects through both the parent drug and metabolites | market withdrawal due to cardiovascular adverse effects ([2]; humans): withdrawn from the market due to cardiotoxicity concerns | detection as cardiotoxic in hiPSC-CMs (hiPSC-CM positive) [3]: TP molecules for both models | time point of detection in hiPSC-CMs [3]: detected only at T3; also recorded: only detected as cardiotoxic through the late assessment
